The text below walks through data of patent US20100222390A1, “Methods and Compositions for the Intravenous Administration of Compounds Related to Proton Pump Inhibitors” (Alevium Pharmaceuticals, Inc., priority 2004, published 2010).

A short description of this series: Stability profile at 25° C. in buffered aqueous solutions. The format is physicochemical. The following applies: for Degradation Rate Constant (k): 25° C. An excerpt: While not intending to be bound in any way by theory, the base-catalyzed degradation is unexpected because the commercial proton pump inhibitors are stabilized in aqueous solutions by adjusting the solution to high pH. […] This should allow bolus injection of the compounds disclosed herein as opposed to the slow infusion of the drug currently in practice because the present compositions will not have the irritation associated with the high pH traditionally used with proton pump inhibitors. This should also allow greater flexibility in co-administering these compounds with drugs which are unstable or otherwise incompatible with high pH.

As to `COc1ccc2c(c1)nc([S+]([O-])Cc1ncc(C)c(OC)c1C)n2S(=O)(=O)c1ccc(OCC(=O)O)cc1` (centres unmarked) [Compound 1], the shelf-life result (in a neutral solution) was “over forty hours”. This compound also registered a Degradation Rate Constant (k) (pH 1, 0.1 M HCl) of 0.194 h⁻¹; a Degradation Rate Constant (k) (pH 3, Citric Acid (0.1 M)/Na2HPO4 (0.2 M)) of 0.009 h⁻¹; a Degradation Rate Constant (k) (pH 5, Citric Acid (0.1 M)/Na2HPO4 (0.2 M)) of 0.008 h⁻¹; a Degradation Rate Constant (k) (pH 7, sodium phosphate (0.1-0.2 M)) of 0.002 h⁻¹; a Degradation Rate Constant (k) (pH 7.4, sodium phosphate (0.1-0.2 M)) of 0.002 h⁻¹; a Degradation Rate Constant (k) (pH 9, sodium phosphate (0.1-0.2 M)) of 0.03 h⁻¹. The Degradation Rate Constant (k) (pH 10, sodium phosphate (0.1-0.2 M)) is 0.298 h⁻¹.
